Data published in ChEMBL document CHEMBL1909046, “DrugMatrix in vitro pharmacology data”.

Experiments:
[1] = molecular target: T1, Alpha-2A adrenergic receptor (Homo sapiens, UniProt P08913); format: cell membranes, Sf9, Membrane; conditions: sf9; note: in other assays of this panel Not Active means under 50% inhibition at 10 µM
T1 sequence (P08913 whole entry): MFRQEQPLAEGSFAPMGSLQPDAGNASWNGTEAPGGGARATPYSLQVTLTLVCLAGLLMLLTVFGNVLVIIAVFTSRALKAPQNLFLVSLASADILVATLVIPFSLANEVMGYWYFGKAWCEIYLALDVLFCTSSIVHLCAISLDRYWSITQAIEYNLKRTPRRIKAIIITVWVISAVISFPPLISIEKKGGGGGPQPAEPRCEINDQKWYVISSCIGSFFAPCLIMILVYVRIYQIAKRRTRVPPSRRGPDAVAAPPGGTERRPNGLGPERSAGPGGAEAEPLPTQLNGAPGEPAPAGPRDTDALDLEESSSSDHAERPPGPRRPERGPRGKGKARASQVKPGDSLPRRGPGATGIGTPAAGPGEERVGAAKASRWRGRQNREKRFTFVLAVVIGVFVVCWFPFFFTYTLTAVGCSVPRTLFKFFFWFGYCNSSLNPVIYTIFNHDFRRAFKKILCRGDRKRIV

[2] = molecular target: T2, Alpha-2C adrenergic receptor (Homo sapiens, UniProt P18825); assay: DRUGMATRIX: Adrenergic Alpha-2C radioligand binding (ligand: [3H] MK-912); format: cell membranes, Sf9, Membrane; conditions: sf9
T2 sequence (P18825 whole entry): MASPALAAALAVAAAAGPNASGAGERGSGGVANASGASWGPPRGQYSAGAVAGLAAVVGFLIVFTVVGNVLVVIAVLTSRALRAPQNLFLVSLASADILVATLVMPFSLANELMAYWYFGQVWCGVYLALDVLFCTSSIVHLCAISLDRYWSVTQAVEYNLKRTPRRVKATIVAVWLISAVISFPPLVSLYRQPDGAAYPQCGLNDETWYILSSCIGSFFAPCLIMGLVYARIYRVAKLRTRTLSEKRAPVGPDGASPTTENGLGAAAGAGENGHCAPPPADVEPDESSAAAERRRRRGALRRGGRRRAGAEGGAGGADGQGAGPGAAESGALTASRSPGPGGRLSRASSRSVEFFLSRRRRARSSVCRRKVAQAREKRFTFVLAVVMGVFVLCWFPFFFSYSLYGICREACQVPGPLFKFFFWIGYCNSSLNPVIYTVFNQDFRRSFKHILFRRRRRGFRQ

[3] = molecular target: D(1A) dopamine receptor (Homo sapiens, UniProt P21728); assay: DRUGMATRIX: Dopamine D1 radioligand binding (ligand: [3H] SCH-23390); format: cell membranes, CHO, Membrane; conditions: cho; Not Active = under 50% inhibition at 10 µM
[4] = DRUGMATRIX: Phorbol Ester radioligand binding (ligand: [3H] PDBu); format: cell membranes, Mus musculus, ICR, Brain, Membrane; conditions: Not Active = under 50% inhibition at 10 µM
[5] = molecular target: T3, Cathepsin G (Homo sapiens, UniProt P08311); assay: biochemical; format: tissue-based, Neutrophil; conditions: neutrophil;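 note: inhibition of Cathepsin G enzyme activity, tested on an AMC-conjugated peptide substrate; in other assays of this panel Not Active means under 50% inhibition at 10 µM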
T3 sequence (P08311 whole entry): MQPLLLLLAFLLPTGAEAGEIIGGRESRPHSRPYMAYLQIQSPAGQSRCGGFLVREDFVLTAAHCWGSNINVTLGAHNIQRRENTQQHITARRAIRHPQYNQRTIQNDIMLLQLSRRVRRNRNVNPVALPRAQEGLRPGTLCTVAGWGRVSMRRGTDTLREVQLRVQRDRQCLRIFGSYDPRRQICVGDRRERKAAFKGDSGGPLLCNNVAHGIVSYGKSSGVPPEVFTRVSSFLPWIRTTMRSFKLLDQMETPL

[6] = molecular target: Receptor tyrosine-protein kinase erbB-2 (Homo sapiens, UniProt P04626); format: cell-based; conditions: insect cells;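 note: inhibition of HER2 kinase enzyme activity, measured with Poly(Glu:Tyr) as the phosphorylation substrate; in other assays of this panel Not Active means under 50% inhibition at 10 µM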

D(1A) dopamine receptor, sequence (P21728 whole entry): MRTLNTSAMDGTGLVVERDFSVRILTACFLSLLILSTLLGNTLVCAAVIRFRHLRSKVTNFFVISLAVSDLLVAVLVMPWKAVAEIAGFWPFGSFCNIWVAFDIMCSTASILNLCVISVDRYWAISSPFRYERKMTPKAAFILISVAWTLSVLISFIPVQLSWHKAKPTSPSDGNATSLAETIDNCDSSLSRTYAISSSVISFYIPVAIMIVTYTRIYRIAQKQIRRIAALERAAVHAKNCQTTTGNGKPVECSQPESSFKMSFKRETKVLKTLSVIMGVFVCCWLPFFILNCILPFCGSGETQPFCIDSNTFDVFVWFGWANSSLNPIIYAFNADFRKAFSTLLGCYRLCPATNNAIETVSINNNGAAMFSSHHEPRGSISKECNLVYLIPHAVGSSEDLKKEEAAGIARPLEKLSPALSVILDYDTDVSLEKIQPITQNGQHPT

OC[C@H]1O[C@@H]2O[C@H]3[C@H](O)[C@@H](O)[C@@H](O[C@H]4[C@H](O)[C@@H](O)[C@@H](O[C@H]5[C@H](O)[C@@H](O)[C@@H](O[C@H]6[C@H](O)[C@@H](O)[C@@H](O[C@H]7[C@H](O)[C@@H](O)[C@@H](O[C@H]8[C@H](O)[C@@H](O)[C@@H](O[C@H]1[C@H](O)[C@H]2O)O[C@@H]8CO)O[C@@H]7CO)O[C@@H]6CO)O[C@@H]5CO)O[C@@H]4CO)O[C@@H]3CO [BETADEX]
Not Active: IC50 [1] | IC50 [2] | IC50 [3] | IC50 [4] | Ki [4] | IC50 [5] | IC50 [6]

CARBOXYMETHYLCELLULOSE
Not Active: IC50 [1] | Ki [1] | IC50 [2] | Ki [2] | IC50 [3] | Ki [3] | IC50 [4] | Ki [4] | IC50 [5] | Ki [5] | IC50 [6] | Ki [6]

O=C(O)COC(=O)Cc1ccccc1Nc1c(Cl)cccc1Cl [ACECLOFENAC]
Not Active: IC50 [1] | IC50 [2] | IC50 [3] | IC50 [4] | Ki [4] | IC50 [5] | IC50 [6]

COc1ccc(C[C@H](N)C(=O)N[C@H]2[C@@H](O)[C@H](n3cnc4c(N(C)C)ncnc43)O[C@@H]2CO)cc1 [PUROMYCIN]
Not Active: IC50 [1] | IC50 [2] | IC50 [3] | IC50 [4] | Ki [4] | IC50 [5] | IC50 [6]

O=C(O)c1ccccc1 [BENZOIC ACID]
Not Active: IC50 [1] | IC50 [2] | IC50 [3] | IC50 [4] | Ki [4] | IC50 [5] | IC50 [6]

C[C@H]1C[C@H]2[C@@H]3CCC4=CC(=O)C=C[C@]4(C)[C@@]3(F)[C@@H](O)C[C@]2(C)[C@@]1(O)C(=O)CO [BETAMETHASONE]
Not Active: IC50 [1] | IC50 [2] | IC50 [3] | IC50 [4] | Ki [4] | IC50 [5] | IC50 [6]

Oc1ccccc1 [PHENOL]
Not Active: IC50 [1] | IC50 [2] | IC50 [3] | IC50 [4] | Ki [4] | IC50 [5] | IC50 [6]

C[C@H](C(=O)O)c1ccc2oc(-c3ccc(F)cc3)nc2c1 [FLUNOXAPROFEN]
Not Active: IC50 [1] | IC50 [2] | IC50 [3] | IC50 [4] | Ki [4] | IC50 [5] | IC50 [6]

C[C@@H]1[C@H](O)[C@@H](C)/C=C/C=C/C=C/C=C/C=C/C=C/C=C/[C@H](O[C@@H]2O[C@H](C)[C@@H](O)[C@H](N)[C@@H]2O)C[C@@H]2O[C@](O)(C[C@@H](O)C[C@@H](O)[C@H](O)CC[C@@H](O)C[C@@H](O)CC(=O)O[C@H]1C)C[C@H](O)[C@H]2C(=O)O [AMPHOTERICIN B]
Not Active: IC50 [1] | IC50 [2] | IC50 [3] | IC50 [4] | Ki [4] | IC50 [5] | IC50 [6]

COc1cc(NC(C)CCCN)c2ncccc2c1 (stereo unspecified) [PRIMAQUINE]
Not Active: IC50 [1] | IC50 [2] | IC50 [3] | IC50 [4] | Ki [4] | IC50 [5] | IC50 [6]

COc1cc(/C=C/C(=O)O)ccc1O [FERULATE]
Not Active: IC50 [1] | IC50 [2] | IC50 [3] | IC50 [4] | Ki [4] | IC50 [5] | IC50 [6]

CCN1CCN(C(=O)N[C@@H](C(=O)N[C@@H]2C(=O)N3[C@@H]2SC(C)(C)[C@@H]3C(=O)O)c2ccccc2)C(=O)C1=O [PIPERACILLIN]
Not Active: IC50 [1] | IC50 [2] | IC50 [3] | IC50 [4] | Ki [4] | IC50 [5] | IC50 [6]

C=CCN1CC[C@]23c4c5ccc(O)c4O[C@H]2/C(=N/N=C2\CC[C@@]4(O)[C@H]6Cc7ccc(O)c8c7[C@@]4(CCN6CC=C)[C@H]2O8)CC[C@@]3(O)[C@H]1C5 [NALOXONAZINE]
Not Active: IC50 [1] | IC50 [2] | IC50 [3] | IC50 [4] | Ki [4] | IC50 [5] | IC50 [6]
